Measured values taken from publication PMC3713009 (PLoS ONE, 2013).
Where two headings read alike, the source gives them in different places. Blank lines part the entries; values can stand above or below the molecule they belong to.

Key:
[1] = molecular target: HDAC3/NCOR1 complex (Homo sapiens, UniProt O15379); assay: HDAC3 enzyme assay (fluorescent activity kit, HDAC3/NCOR1 complex); type: biochemical; conditions: for inhibition at 10 µM: library screen, o-aminoanilides T1–T336 without purification, values read from Figure 7; for IC50 / IC50 HDAC3: class I, means of at least three experiments;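 for all read-outs here: in vitro enzyme activity of HDAC3 complexed with NCOR1, fluorescence read at 360 nm excitation and 460 nm emission, inhibition relative to uninhibited control wells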
Sequence of HDAC3/NCOR1 complex (O15379 whole entry): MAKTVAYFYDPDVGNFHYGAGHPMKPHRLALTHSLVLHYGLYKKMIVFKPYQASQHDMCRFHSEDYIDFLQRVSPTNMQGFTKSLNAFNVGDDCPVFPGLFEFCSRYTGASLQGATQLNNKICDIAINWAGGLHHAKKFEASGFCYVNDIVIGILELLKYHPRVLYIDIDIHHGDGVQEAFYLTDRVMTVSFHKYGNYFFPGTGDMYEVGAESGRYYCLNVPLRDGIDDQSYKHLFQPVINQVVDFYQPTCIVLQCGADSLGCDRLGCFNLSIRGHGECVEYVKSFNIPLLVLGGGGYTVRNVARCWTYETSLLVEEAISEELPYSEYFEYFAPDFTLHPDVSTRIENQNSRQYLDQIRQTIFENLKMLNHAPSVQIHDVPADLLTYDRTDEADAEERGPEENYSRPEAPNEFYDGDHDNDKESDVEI
Sequence of HDAC3/NCOR1 complex (O75376 395-489 partner limits assumed): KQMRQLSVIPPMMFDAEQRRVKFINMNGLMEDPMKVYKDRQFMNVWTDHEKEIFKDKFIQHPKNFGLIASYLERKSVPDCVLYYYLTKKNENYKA

[2] = molecular target: T1, HDAC8 (Homo sapiens, UniProt Q9BY41); assay: HDAC8 enzyme assay; type: biochemical; conditions: class I; means of at least three experiments
T1 construct: purchased Cyclex Company Limited CY-1158
T1 sequence (Q9BY41 1-377): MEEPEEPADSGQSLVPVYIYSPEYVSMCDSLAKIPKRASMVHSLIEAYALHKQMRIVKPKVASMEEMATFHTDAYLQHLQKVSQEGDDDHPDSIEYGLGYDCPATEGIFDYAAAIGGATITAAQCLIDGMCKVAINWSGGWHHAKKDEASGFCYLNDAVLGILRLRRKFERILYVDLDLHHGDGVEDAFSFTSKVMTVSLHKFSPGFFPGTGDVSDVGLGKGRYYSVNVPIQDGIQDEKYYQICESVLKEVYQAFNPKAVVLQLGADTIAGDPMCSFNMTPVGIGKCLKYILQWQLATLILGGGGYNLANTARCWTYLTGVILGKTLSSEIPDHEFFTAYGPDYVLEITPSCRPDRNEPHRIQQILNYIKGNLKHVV
Experimental: (§1) The fluorescence of the wells was measured on a fluorometric reader with excitation set at 360 nm and emission detection set at 460 nm, and the values of % inhibition were calculated from the fluorescence readings of inhibited wells relative to those of control wells. […] IC50 values were determined by regression analysis of the concentration/inhibition data.

[3] = test system: acetylated NF-κB in HCT116 cells; assay: Western blot of acetylated NF-κB in HCT116 cells; type: cell-based, human; conditions: 8 h treatment
[4] = test system: OM10.1 cells latently infected with HIV-1; assay: Viral p24 antigen assay in latently HIV-1-infected OM10.1 cells; type: cell-based
Experimental: Figure 13 Induction of viral replication from OM10.1 cells latently infected with HIV-1. […] HIV-1 p24 antigen in the cell culture supernatant was measured using ELISA. Experiments were performed in triplicate, and the means ±S.D. are indicated. **P<0.01, *P<0.05; Student’s t test results indicated differences between DMSO and inhibitors.
The p24 antigen level in the cell culture supernatant was measured by p24 antigen capture ELISA assay using a commercial kit (RETRO-TEK HIV-1 p24 Antigen ELISA kit; Zepto Metrix, Buffalo, NY, USA) according to the method reported in ref [54].

[5] = molecular target: T2, HDAC4 (Homo sapiens, UniProt P56524); assay: HDAC4 enzyme assay; type: biochemical; conditions: class IIa; means of at least three experiments
T2 construct: purchased BPS Bioscience Incorporated
T2 sequence (P56524 627-1084 limits assumed): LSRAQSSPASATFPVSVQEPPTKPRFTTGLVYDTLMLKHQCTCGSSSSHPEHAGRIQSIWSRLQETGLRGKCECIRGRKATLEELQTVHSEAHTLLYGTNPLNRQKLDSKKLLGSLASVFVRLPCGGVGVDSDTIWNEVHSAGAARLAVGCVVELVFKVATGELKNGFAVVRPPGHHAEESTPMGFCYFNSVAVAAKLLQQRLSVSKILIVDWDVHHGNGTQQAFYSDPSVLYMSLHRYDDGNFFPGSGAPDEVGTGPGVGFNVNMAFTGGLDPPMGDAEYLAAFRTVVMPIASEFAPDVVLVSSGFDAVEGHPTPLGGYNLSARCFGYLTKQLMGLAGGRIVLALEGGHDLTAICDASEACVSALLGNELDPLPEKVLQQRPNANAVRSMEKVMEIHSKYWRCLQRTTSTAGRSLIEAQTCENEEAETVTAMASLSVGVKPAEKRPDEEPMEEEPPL

[6] = molecular target: total HDACs from HeLa nuclear extracts; assay: Total HDACs enzyme assay (HeLa nuclear extracts); type: biochemical; conditions: pure resynthesized compounds, means of at least three experiments
[7] = molecular target: T3, HDAC1 (Homo sapiens, UniProt Q13547); assay: HDAC1 enzyme assay; type: biochemical; conditions: class I; means of at least three experiments
T3 construct: purchased SignalChem Pharmaceuticals Inc. H83-30G
T3 sequence (Q13547 whole entry): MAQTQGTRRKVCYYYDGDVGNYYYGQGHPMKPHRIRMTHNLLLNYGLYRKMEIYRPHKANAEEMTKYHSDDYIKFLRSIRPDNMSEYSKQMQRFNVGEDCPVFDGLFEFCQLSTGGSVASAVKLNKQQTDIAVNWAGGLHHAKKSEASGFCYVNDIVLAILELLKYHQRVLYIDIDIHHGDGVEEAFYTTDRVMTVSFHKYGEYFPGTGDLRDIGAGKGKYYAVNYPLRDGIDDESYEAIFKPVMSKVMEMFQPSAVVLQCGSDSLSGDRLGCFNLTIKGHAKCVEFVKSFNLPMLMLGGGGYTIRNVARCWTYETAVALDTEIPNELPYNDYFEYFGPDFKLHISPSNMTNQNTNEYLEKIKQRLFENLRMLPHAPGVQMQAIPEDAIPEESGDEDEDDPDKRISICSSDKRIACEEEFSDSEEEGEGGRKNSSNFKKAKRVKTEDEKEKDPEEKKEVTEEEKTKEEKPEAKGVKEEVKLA
Experimental: as §1

[8] = test system: colon cancer HCT116 cells; assay: Cell growth inhibition assay (MTT), HCT116; type: cell-based; conditions: Homo sapiens, read-out: GI50 HCT116 (colon cancer)
[9] = test system: acetylated p53 in HCT116 cells; assay: Western blot of acetylated p53 in HCT116 cells; type: cell-based, human; conditions: 8 h treatment
[10] = test system: prostate cancer PC3 cells; assay: Cell growth inhibition assay (MTT), PC3; type: cell-based; conditions: Homo sapiens, read-out: GI50 PC3 (prostate cancer)
[11] = molecular target: T4, HDAC6 (Homo sapiens, UniProt Q9UBN7); assay: HDAC6 enzyme assay; type: biochemical; conditions: class IIb; means of at least three experiments
T4 construct: purchased BIOMOL Research Laboratories SE-508
T4 sequence (Q9UBN7 1-1215): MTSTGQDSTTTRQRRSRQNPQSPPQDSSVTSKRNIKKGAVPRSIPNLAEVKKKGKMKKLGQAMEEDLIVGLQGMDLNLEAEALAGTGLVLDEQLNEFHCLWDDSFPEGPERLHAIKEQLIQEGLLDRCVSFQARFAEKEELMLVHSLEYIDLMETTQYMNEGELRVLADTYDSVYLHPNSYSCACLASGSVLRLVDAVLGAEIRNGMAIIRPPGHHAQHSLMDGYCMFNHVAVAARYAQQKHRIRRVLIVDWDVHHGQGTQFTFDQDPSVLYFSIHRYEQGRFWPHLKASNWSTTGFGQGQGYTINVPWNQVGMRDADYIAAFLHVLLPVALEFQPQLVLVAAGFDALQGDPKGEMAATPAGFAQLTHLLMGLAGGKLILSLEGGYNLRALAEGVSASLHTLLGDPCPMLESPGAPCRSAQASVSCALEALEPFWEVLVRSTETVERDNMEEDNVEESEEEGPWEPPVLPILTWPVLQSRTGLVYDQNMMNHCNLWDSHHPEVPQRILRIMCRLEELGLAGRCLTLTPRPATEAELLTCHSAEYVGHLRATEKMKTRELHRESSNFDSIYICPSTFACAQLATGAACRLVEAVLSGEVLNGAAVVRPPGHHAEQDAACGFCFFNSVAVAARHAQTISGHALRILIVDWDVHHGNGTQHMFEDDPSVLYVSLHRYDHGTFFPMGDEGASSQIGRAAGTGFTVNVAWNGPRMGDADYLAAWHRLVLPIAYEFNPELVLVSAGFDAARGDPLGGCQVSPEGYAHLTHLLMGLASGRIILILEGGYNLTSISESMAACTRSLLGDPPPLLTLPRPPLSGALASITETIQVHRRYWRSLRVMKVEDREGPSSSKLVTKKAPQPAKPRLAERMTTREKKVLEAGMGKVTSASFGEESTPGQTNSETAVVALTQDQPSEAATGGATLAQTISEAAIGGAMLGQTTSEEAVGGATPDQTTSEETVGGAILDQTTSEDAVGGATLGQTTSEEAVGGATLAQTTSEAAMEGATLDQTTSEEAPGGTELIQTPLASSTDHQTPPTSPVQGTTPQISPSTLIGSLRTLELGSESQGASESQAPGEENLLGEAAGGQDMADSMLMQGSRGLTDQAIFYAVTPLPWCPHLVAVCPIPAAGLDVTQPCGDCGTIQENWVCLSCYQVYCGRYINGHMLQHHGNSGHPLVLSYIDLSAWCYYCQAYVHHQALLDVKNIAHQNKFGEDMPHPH

[12] = test system: acetylated α-tubulin in HCT116 cells; assay: Western blot of acetylated α-tubulin in HCT116 cells; type: cell-based, human; conditions: 8 h treatment
[13] = 48 h, 0.1, 1 and 10 µM, effect at 1 µM and/or 10 µM
[14] = HCT-116, 48 h exposure, MTT, means of at least three experiments
[15] = PC-3, 48 h exposure, MTT, means of at least three experiments
[16] = 1 µM, means of two experiments, read-out: HDAC3 inhibition (%)
[17] = 3 µM, means of two experiments, read-out: HDAC3 inhibition (%)

HDAC3 inhibition (%) ([1]; 1 µM, means of two experiments): 73%
HDAC3 inhibition (%) ([1]; 3 µM, means of two experiments): 91%
SMILES: COc1ccccc1CCn1cc(-c2ccc(C(=O)Nc3ccccc3N)cc2)nn1 [Compound T266]

HDAC3 inhibition (%) ([1]; 1 µM, means of two experiments): 80%
HDAC3 inhibition (%) ([1]; 3 µM, means of two experiments): 92%
SMILES: COc1cccc(CCn2cc(-c3ccc(C(=O)Nc4ccccc4N)cc3)nn2)c1 [Compound T267]

SMILES: Nc1ccccc1NC(=O)c1ccc(-c2cn(CCc3cccc([N+](=O)[O-])c3)nn2)s1 [Compound T326, 5-{1-[2-(3-Nitrophenyl)ethyl]-1H-[1], [2], [3]triazol-4-yl}thiophene-2-carboxylic acid (2-aminophenyl)amide]
IC50 [2]: > 100 µM
NF-κB acetylation [3]: dose-dependent increase of NF-κB acetylation
HIV-1 expression (p24 antigen in supernatant) ([4]; 48 h, 10 µM): less active at 10 µM due to cytotoxicity
HIV-1 expression (p24 antigen in supernatant) [4, 13]: significantly stimulated HIV-1 expression
IC50 [5]: > 100 µM
IC50 [6]: > 100 µM
IC50 [7]: > 100 µM
GI50 [8, 14]: 0.94 µM
levels of acetylated p53 [9]: not elevated
GI50 [10, 15]: 1 µM
IC50 [11]: > 100 µM
acetylation of α-tubulin [12]: did not enhance the acetylation of α-tubulin
inhibition at 1 µM [1, 16]: 86%
inhibition at 3 µM [1, 17]: 95%
inhibition at 10 µM [1]: 98%
IC50 [1]: 0.26 µM
IC50 HDAC3 [1]: submicromolar

HDAC3 inhibition (%) ([1]; 1 µM, means of two experiments): 75%
HDAC3 inhibition (%) ([1]; 3 µM, means of two experiments): 89%
SMILES: Nc1ccccc1NC(=O)c1ccc(-c2cn(CCc3cccc(F)c3)nn2)cc1 [Compound T261]

HDAC3 inhibition (%) ([1]; 1 µM, means of two experiments): 77%
HDAC3 inhibition (%) ([1]; 3 µM, means of two experiments): 91%
SMILES: Nc1ccccc1NC(=O)c1ccc(-c2cn(CCc3ccc(F)cc3)nn2)s1 [Compound T318]

HDAC3 inhibition (%) ([1]; 1 µM, means of two experiments): 74%
HDAC3 inhibition (%) ([1]; 3 µM, means of two experiments): 91%
SMILES: Cc1ccccc1CCn1cc(-c2ccc(C(=O)Nc3ccccc3N)cc2)nn1 [Compound T263]

SMILES: Cc1ccc(C(=O)NCC(=O)NCCC(=O)Nc2ccccc2N)cc1 [compound 1, reference compound]
IC50 [2]: > 100 µM
HIV-1 expression (p24 antigen in supernatant) [4, 13]: did not show any activity
IC50 [5]: > 100 µM
IC50 [6]: > 100 µM
IC50 [7]: > 100 µM
GI50 [8, 14]: 81 µM
GI50 [10, 15]: > 100 µM
IC50 [11]: > 100 µM
inhibition at 1 µM [1, 16]: 9%
inhibition at 3 µM [1, 17]: 29%
inhibition at 10 µM [1]: 47%
IC50 [1]: 19 µM

SMILES: O=C(CCCCCCC(=O)Nc1ccccc1)NO [vorinostat (3), vorinostat, reference compound]
NF-κB acetylation [3]: induced non-selective acetylation of NF-κB and p53
HIV-1 expression (p24 antigen in supernatant) [4, 13]: significantly stimulated HIV-1 expression
GI50 ([8]; HCT-116, 48 h): 1.3 µM
levels of acetylated p53 [9]: induced non-selective acetylation of NF-κB and p53
GI50 ([10]; PC-3, 48 h): 1.6 µM
inhibition at 1 µM ([1]; read-out: HDAC3 inhibition (%)): 83%
inhibition at 3 µM ([1]; read-out: HDAC3 inhibition (%)): 93%
inhibition at 1 µM ([1]; read-out: HDAC3 inhibition (%) at 1 µM): 98%

HDAC3 inhibition (%) ([1]; 1 µM, means of two experiments): 55%
HDAC3 inhibition (%) ([1]; 3 µM, means of two experiments): 80%
SMILES: Nc1ccccc1NC(=O)c1ccc(-c2cn(CCC3CCCCC3)nn2)cc1 [Compound T254]

HDAC3 inhibition (%) ([1]; 1 µM, means of two experiments): 59%
HDAC3 inhibition (%) ([1]; 3 µM, means of two experiments): 83%
SMILES: Nc1ccccc1NC(=O)c1cccc(-c2cn(CC(=O)c3ccccc3)nn2)c1 [Compound T199]

HDAC3 inhibition (%) ([1]; 1 µM, means of two experiments): 55%
HDAC3 inhibition (%) ([1]; 3 µM, means of two experiments): 81%
SMILES: Nc1ccccc1NC(=O)CCc1cn(Cc2cccc(-c3ccccc3)c2)nn1 [Compound T52]

HDAC3 inhibition (%) ([1]; 1 µM, means of two experiments): 75%
HDAC3 inhibition (%) ([1]; 3 µM, means of two experiments): 92%
SMILES: Nc1ccccc1NC(=O)c1ccc(-c2cn(Cc3cccc4ccccc34)nn2)cc1 [Compound T251]

SMILES: Nc1ccccc1NC(=O)c1ccc(-c2cn(CCc3ccsc3)nn2)cc1 [Compound T247, N-(2-Aminophenyl)-4-[1-(2-thiophen-3-ylethyl)-1H-[1], [2], [3]triazol-4-yl]benzamide]
NF-κB acetylation [3]: dose-dependent increase of NF-κB acetylation
HIV-1 expression (p24 antigen in supernatant) [4, 13]: significantly stimulated HIV-1 expression
IC50 [6]: > 100 µM
IC50 [7]: 19 µM
GI50 [8, 14]: 1.9 µM
levels of acetylated p53 [9]: not elevated
GI50 [10, 15]: 1.4 µM
acetylation of α-tubulin [12]: did not enhance the acetylation of α-tubulin
inhibition at 1 µM [1, 16]: 89%
inhibition at 3 µM [1, 17]: 95%
inhibition at 10 µM [1]: 93%
IC50 HDAC3 [1]: submicromolar
